Source: patent US20040033943A1, “Hcn polypeptides and polynucleotides and their use in therapy” (priority 2000, published 2004)
Where two headings read alike, the source gives them in different places.

Tests used:
hippocampal slices = experiment: Epileptiform bursting activity in hippocampal slices (field recordings, area CA3); format: cell-based, rat; conditions: irrespective of model: bicuculline, Mg2+-free, 4-AP, Ca2+-free/elevated K+
Protocol: Hippocampal slices were prepared from 4-6 week old rats that had been sacrificed by cervical dislocation and subsequent decapitation in accordance with UK Home Office guidelines. The brain was removed rapidly and hippocampal slices prepared by cutting 400 μm thick horizontal sections through the whole brain minus the cerebellum using a vibroslicer (Campden Instruments, Loughborough, UK). The hippocampus from these sections was dissected free from the surrounding brain regions and the resultant hippocampal slices placed on a nylon mesh at the interface of a warmed (32-34° C.), perfusing (1-2 ml.min^−1) artificial cerebrospinal fluid (aCSF) and an oxygen-enriched (95% O2, 5% CO2), humidified atmosphere. The standard perfusion medium comprised (mM): NaCl, 124; KCl, 3; NaHCO3, 26; NaH2PO4, 1.25; CaCl2, 2; MgSO4, 1; D-glucose, 10; and was bubbled with 95% O2, 5% CO2. Extracellular field potential recordings were made using glass microelectrodes (24 MΩ) filled with aCSF placed in stratum pyramidale in area CA3. […] Non synaptic field bursting activity (that is relevant to both epilepsy and migraine) was induced by removal of extracellular Ca^2+ and elevation of extracellular K^+ from 3 mM to 6-8 mM (FIG. 12).

NMDA receptor = format: cell-based
HCN channels = conditions: non use-dependent; cited from earlier work
[1] = test system: primary hippocampal neurons; experiment: Excitotoxicity in dispersed primary hippocampal cultures (MTT cell survival); format: cell-based, Sprague Dawley rat
[2] = test system: organotypic hippocampal slice cultures, hippocampal CA1 region; experiment: Oxygen/glucose deprivation of hippocampal organotypic slice cultures (PI staining); format: cell-based, Lister Hooded rat
[3] = test system: metabotropic glutamate receptor; experiment: Selectivity: metabotropic glutamate receptor activation; format: cell-based; conditions: 100 μM
[4] = test system: voltage-gated Na+ and K+ channels; experiment: Selectivity: action potential firing; format: cell-based; conditions: 100 μM
SCN neurones = experiment: Suprachiasmatic nucleus slices, extracellular single unit recordings; format: cell-based, rat; conditions: 10-100 μM; all neurones tested
Protocol: Supraachiasmatic nucleus slices were prepared from 4-6 week old rats that had been sacrificed by cervical dislocation and subsequent decapitation in accordance with UK Home Office guidelines. The brain was removed rapidly and SCN slices prepared by cutting 400 μm thick coronal sections through the whole brain minus the cerebellum using a vibroslicer (Campden Instruments, Loughborough, UK). The resultant SCN slices were placed in a warmed (32-34° C.) submersion recording chamber perfused at 1-2 ml.min^−1 with an oxygen-enriched (95% O2, 5% CO2) artificial cerebrospinal fluid (aCSF) comprised of (mM): NaCl, 124; KCl, 3; NaHCO3, 26; NaH2PO4, 1.25; CaCl2, 2; MgSO4, 1; D-glucose, 10. Extracellular single unit recordings were made using glass microelectrodes (24 MΩ) filled with aCSF placed in the SCN.

hippocampal cultures = experiment: Spontaneous synaptic activity and membrane potential in hippocampal cultures, Mg2+-free insult; format: cell-based, rat; conditions: 100 μM; applied before, during or after the Mg2+-free insult
Protocol: When Mg^2+ containing medium was reinstated 15 mins later there was a sustained increase in spontaneous activity above that recorded prior to the Mg^2+ free challenge. No change in the magnitude of the Ih current was recorded during or after the Mg^2+ free challenge. […] This reduction in activity differed from that induced by the NMDA receptor antagonist AP5 in that the frequency of activity in the presence of ZD7288 was much lower, yet individual events were much larger, than that observed in AP5.

Ih = experiment: Whole-cell patch-clamp detection of Ih in neurones from both culture models; format: cell-based, rat
[5] = test system: voltage-gated Ca2+ channel; experiment: Selectivity: voltage-gated Ca2+ channel activation; format: cell-based; conditions: 100 μM

## CCN(c1ccccc1)c1cc(=NC)n(C)c(C)n1.Cl [ZD7288, N-ethyl-1,6-dihydro-1,2-dimethyl-6-(methylimino)-N-phenyl-4-pyrimidinamine hydrochloride]
Hippocampal slices
  effect on epileptiform bursting activity: concentration dependent inhibition
NMDA receptor
  direct effects on NMDA receptor activation: no direct effects
HCN channels
  concentration range inhibiting HCN channels: 1 to 300 µM
[1]; 1 μM, added 30 minutes before, during, and for 24 h after the insult
  NEURONAL SURVIVAL (%): 40.6 ± 4.9%
[1]; 3 μM, added 30 minutes before, during, and for 24 h after the insult
  NEURONAL SURVIVAL (%): 40.1 ± 8.1%
[1]; 10 μM, added 30 minutes before, during, and for 24 h after the insult
  NEURONAL SURVIVAL (%): 48.4 ± 5.5%
[1]; 30 μM, added 30 minutes before, during, and for 24 h after the insult
  NEURONAL SURVIVAL (%): 56.7 ± 2.0%
[1]; 100 μM, added 30 minutes before, during, and for 24 h after the insult
  NEURONAL SURVIVAL (%): 65.9 ± 3.7%
[1]; 100 μM, added during the 24 h recovery period only
  NEURONAL SURVIVAL (%): 78.0 ± 5.5%
[1]; 100 μM, added during the insult only
  NEURONAL SURVIVAL (%): 79.5 ± 2.1%
[1]; 300 μM, added 30 minutes before, during, and for 24 h after the insult
  NEURONAL SURVIVAL (%): 88.5 ± 2.7%
[1]; 300 μM, added during the 24 h recovery period only
  NEURONAL SURVIVAL (%): 101.0 ± 1.2%
[1]; 300 μM, added during the insult only
  NEURONAL SURVIVAL (%): 97.9 ± 9.6%
[1]; FIG. 4
  delay of application after the insult without loss of neuroprotective efficacy: up to 60 minutes
[1]; Rattus norvegicus, Hippocampal neuron, hippocampal neurones, read-out: IC50 for inhibition of damage
  IC50: ~120 µM
[2]; 100 nM, added 60 minutes before, during, and for 24 h after the insult
  DAMAGE (% Cell Loss): 64.01 ± 4.66%
[2]; 300 nM, added 60 minutes before, during, and for 24 h after the insult
  DAMAGE (% Cell Loss): 15.12 ± 9.54%
[2]; 1 μM, added 60 minutes before, during, and for 24 h after the insult
  DAMAGE (% Cell Loss): 0.72 ± 0.44%
[2]; 10 μM, added 60 minutes before, during, and for 24 h after the insult
  DAMAGE (% Cell Loss): 4.58 ± 3.09%
[2]; 100 μM, added immediately after the insult and for the 24 h recovery period only
  DAMAGE (% Cell Loss): 12.50 ± 8.24%
[2]; applied immediately after oxygen glucose deprivation, FIG. 3
  neuroprotection: neuroprotection was still observed
[2]; treated slices subjected to OGD, single-shock electrical stimulation in stratum radiatum, FIG. 3
  electrophysiological responses in stratum pyramidale and stratum radiatum of area CA1: possible to evoke normal electrophysiological responses
[3]
  direct effects on metabotropic glutamate receptor activation: no direct effects
[4]
  direct effects on action potential firing (activation of voltage-gated Na+ and K+ channels): no direct effects
SCN neurones
  effect on frequency of single unit firing: concentration dependent reduction
Hippocampal cultures
  effect on membrane potential / current: induced a membrane potential hyperpolarization/outward current
  effect on spontaneous activity: reduced spontaneous activity
Ih; 100 μM
  block of Ih: almost completely blocked
Ih; 0.1-100 μM
  inhibition of hyperpolarization-activated current (Ih): inhibited
[5]
  direct effects on voltage-gated Ca2+ channel activation: no direct effects

## C[C@]12N[C@H](Cc3ccccc31)c1ccccc12 [MK-801]
[1]
  NEURONAL SURVIVAL (%): 101 ± 1.2%
[2]
  DAMAGE (% Cell Loss): 34.90 ± 15.99%
